Measurements published in patent publication US10010539B2, “Pyrazole, triazole and tetrazole orexin receptor antagonists” (MERCK SHARP & DOHME CORP., priority 2014, dated 2018).

Assays:
[1] = target: human orexin-2 receptor (Homo sapiens (Human), UniProt O43614); assay: FLIPR Ca2+ Flux Assay, orexin-2 receptor (hOX2R FLIPR); type: cell-based; settings: CHO cells expressing the human orexin-2 receptor; agonist 70 pM Ala-6,12 human orexin-A
Protocol: (§1) The utility of the compounds in accordance with the present invention as orexin receptor OX1R and/or OX2R antagonists may be readily determined without undue experimentation by methodology well known in the art, including the “FLIPR Ca^2+ Flux Assay” (Okumura et al., Biochem. Biophys. Res. Comm. 280:976-981, 2001). In a typical experiment the OX1 and OX2 receptor antagonistic activity of the compounds of the present invention was determined in accordance with the following experimental method. For intracellular calcium measurements, Chinese hamster ovary (CHO) cells expressing the rat orexin-1 receptor or the human orexin-2 receptor, are grown in Iscove's modified DMEM containing 2 mM L-glutamine, […], 1% hypoxanthine-thymidine supplement, 100 U/ml penicillin, 100 μg/ml streptomycin and 10% heat-inactivated fetal calf serum (FCS). The cells are seeded at 20,000 cells/well into Becton-Dickinson black 384-well clear bottom sterile plates coated with poly-D-lysine. All reagents were from GIBCO-Invitrogen Corp. The seeded plates are incubated overnight at 37° C. and 5% CO2. Ala-6,12 human orexin-A as the agonist is prepared as a 1 mM stock solution in 1% bovine serum albumin (BSA) and diluted in assay buffer (HBSS containing 20 mM HEPES, 0.1% BSA and 2.5 mM probenecid, pH7.4) for use in the assay at a final concentration of 70 pM. Test compounds are prepared as 10 mM stock solution in DMSO, then diluted in 384-well plates, first in DMSO, then assay buffer. On the day of the assay, cells are washed 3 times with 100 μl assay buffer and then incubated for 60 min (37° C., 5% CO2) in 60 μl assay buffer containing 1 μM Fluo-4AM ester, 0.02% pluronic acid, and 1% BSA. The dye loading solution is then aspirated and cells are washed 3 times with 100 μl assay buffer. 30 μl of that same buffer is left in each well. Within the Fluorescent Imaging Plate Reader (FLIPR, Molecular Devices), test compounds are added to the plate in a volume of 25 μl, incubated for 5 min and finally 25 μl of agonist is added. Fluorescence is measured for each well at 1 second intervals for 5 minutes and the height of each fluorescence peak is compared to the height of the fluorescence peak induced by 70 pM Ala-6,12 orexin-A with buffer in place of antagonist. For each antagonist, IC50 value (the concentration of compound needed to inhibit 50% of the agonist response) is determined. Alternatively, compound potency can be assessed by a radioligand binding assay (described in Bergman et. al. Bioorg. Med. Chem. Lett. 2008, 18, 1425-1430) in which the inhibition constant (Ki) is determined in membranes prepared from CHO cells expressing either the OX1 or OX2 receptor. The intrinsic orexin receptor antagonist activity of a compound which may be used in the present invention may be determined by these assays.

[2] = target: hOXIR (orexin-1 receptor) (Homo sapiens, UniProt O43613); assay: FLIPR Ca2+ Flux Assay, orexin-1 receptor (hOXIR FLIPR); type: cell-based; settings: CHO cells expressing the orexin-1 receptor (method text: rat; table head: hOXIR); agonist 70 pM Ala-6,12 human orexin-A
Protocol: as §1

Chain of human orexin-2 receptor (O43614 whole entry): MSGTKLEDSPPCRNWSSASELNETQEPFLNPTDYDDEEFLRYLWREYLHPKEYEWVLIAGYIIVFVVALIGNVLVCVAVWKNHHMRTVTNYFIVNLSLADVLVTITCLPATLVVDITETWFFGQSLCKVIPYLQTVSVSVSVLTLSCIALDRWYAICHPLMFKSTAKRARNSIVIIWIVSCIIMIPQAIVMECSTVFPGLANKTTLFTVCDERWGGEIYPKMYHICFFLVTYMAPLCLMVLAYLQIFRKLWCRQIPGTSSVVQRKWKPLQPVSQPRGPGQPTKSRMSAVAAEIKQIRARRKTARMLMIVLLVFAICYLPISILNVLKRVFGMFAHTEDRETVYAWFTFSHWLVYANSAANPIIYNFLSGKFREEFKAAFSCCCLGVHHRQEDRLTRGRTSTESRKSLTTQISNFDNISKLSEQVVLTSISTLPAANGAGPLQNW

## C[C@@H]1CC[C@@H](n2ncc(C(C)(C)O)n2)CN1C(=O)c1ccccc1OCC(F)(F)F [Example 16, ((2R,5R)-5-(4-(2-Hydroxypropan-2-yl)-2H-1,2,3-triazol-2-yl)-2-methylpiperidin-1-yl)(2-(2,2,2-trifluoroethoxy)phenyl)methanone]
[1]
  IC50: 22.8 nM
[2]
  IC50: > 10000 nM

## Cc1ccc(C(=O)N2C[C@H](n3ncc(C(C)(C)O)n3)CC[C@H]2C)c(-n2nccn2)n1 [Example 55, 2-{2-[(3R,6R)-6-methyl-1-{[6-methyl-2-(2H-1,2,3-triazol-2-yl)pyridin-3-yl]carbonyl}piperidin-3-yl]-2H-1,2,3-triazol-4-yl}propan-2-ol]
[1]
  IC50: 222 nM
[2]
  IC50: > 10000 nM

## Cc1c(C(C)(C)O)cnn1[C@@H]1CC[C@@H](C)N(C(=O)c2ccccc2-n2nccn2)C1 [Example 108, 2-{5-Methyl-1-[(3R,6R)-6-methyl-1-{[2-(2H-1,2,3-triazol-2-yl)phenyl]carbonyl}piperidin-3-yl]-1H-pyrazol-4-yl}propan-2-ol]
[1]
  IC50: 73.2 nM
[2]
  IC50: 3370 nM

## C[C@@H]1CC[C@@H](n2ncc(C(C)(C)O)n2)CN1C(=O)c1ccc(F)cc1-n1nccn1 [Example 39, 2-{2-[(3R,6R)-1-{[4-fluoro-2-(2H-1,2,3-triazol-2-yl)phenyl]carbonyl}-6-methylpiperidin-3-yl]-2H-1,2,3-triazol-4-yl}propan-2-ol]
[1]
  IC50: 27.1 nM
[2]
  IC50: > 10000 nM

## CC(C)Oc1ccccc1C(=O)N1C[C@H](n2cc(C(C)(C)O)cn2)CC[C@H]1C [Example 81, 2-{1-[(3R,6R)-6-Methyl-1-{[2-(1-methylethoxy)phenyl]carbonyl}piperidin-3-yl]-1H-pyrazol-4-yl}propan-2-ol]
[1]
  IC50: 89.8 nM
[2]
  IC50: > 10000 nM

## COc1ccc(C(=O)N2C[C@H](n3ncc(C(C)(C)O)n3)CC[C@H]2C)c(-n2nccn2)c1 [Example 54, 2-{2-[(3R,6R)-1-{[4-methoxy-2-(2H-1,2,3-triazol-2-yl)phenyl]carbonyl}-6-methylpiperidin-3-yl]-2H-1,2,3-triazol-4-yl}propan-2-ol]
[1]
  IC50: 53.3 nM
[2]
  IC50: > 10000 nM

## C[C@@H]1CC[C@@H](n2cc(C(C)(C)O)cn2)CN1C(=O)c1cccnc1-n1cccn1 [Example 90, 2-{1-[(3R,6R)-6-Methyl-1-{[2-(1H-pyrazol-1-yl)pyridin-3-yl]carbonyl}piperidin-3-yl]-1H-pyrazol-4-yl}propan-2-ol]
[1]
  IC50: 33.6 nM
[2]
  IC50: > 10000 nM

## C[C@@H]1CC[C@@H](n2ncc(C(C)(C)O)n2)CN1C(=O)c1cccc(F)c1-n1nccn1 [Example 31, 2-{2-[(3R,6R)-1-{[3-fluoro-2-(2H-1,2,3-triazol-2-yl)phenyl]carbonyl}-6-methylpiperidin-3-yl]-2H-1,2,3-triazol-4-yl}propan-2-ol]
[1]
  IC50: 36.4 nM
[2]
  IC50: > 10000 nM

## C[C@@H]1CC[C@@H](n2ncc(C(C)(C)O)n2)CN1C(=O)c1ccccc1C1(C#N)CC1 [Example 1, 1-(2-((2R,5R)-5-(4-(2-Hydroxypropan-2-yl)-2H-1,2,3-triazol-2-yl)-2-methylpiperidine-1-carbonyl)phenyl)cyclopropanecarbonitrile]
[1]
  IC50: 13.8 nM
[2]
  IC50: 1160 nM

## C[C@@H]1CC[C@@H](n2cc(C(C)(C)O)cn2)CN1C(=O)c1ccccc1-n1nccn1 [Example 75, 2-{1-[(3R,6R)-6-Methyl-1-{[2-(2H-1,2,3-triazol-2-yl)phenyl]carbonyl}piperidin-3-yl]-1H-pyrazol-4-yl}propan-2-ol]
[1]
  IC50: 21.6 nM
[2]
  IC50: > 10000 nM

## CC(C)Oc1ncccc1C(=O)N1C[C@H](n2cc(C(C)(C)O)cn2)CC[C@H]1C [Example 97, 2-{1-[(3R,6R)-6-Methyl-1-{[2-(1-methylethoxy)pyridin-3-yl]carbonyl}piperidin-3-yl]-1H-pyrazol-4-yl}propan-2-ol]
[1]
  IC50: 240 nM
[2]
  IC50: > 10000 nM

## CCOc1ccccc1C(=O)N1C[C@H](n2nc(C)c(C(C)(C)O)n2)CC[C@H]1C [Example 69, 2-(2-{(3R,6R)-1-[(2-Ethoxyphenyl)carbonyl]-6-methylpiperidin-3-yl}-5-methyl-2H-1,2,3-triazol-4-yl)propan-2-ol]
[1]
  IC50: 7.9 nM
[2]
  IC50: 1950 nM

## C[C@@H]1CC[C@@H](n2cc(C(C)(C)O)cn2)CN1C(=O)c1ccccc1OCC(F)(F)F [Example 80, 2-{1-[(3R,6R)-6-Methy-1-{[2-(2,2,2-trifluoroethoxy)phenyl]carbonyl}piperidin-3-yl]-1H-pyrazol-4-yl}propan-2-ol]
[1]
  IC50: 165 nM
[2]
  IC50: > 10000 nM

## C[C@@H]1CC[C@@H](n2ncc(-c3ccccc3)n2)CN1C(=O)c1ccccc1-n1nccn1 [Example 28, (2-(2H-1,2,3-triazol-2-yl)phenyl)((2R,5R)-2-methyl-5-(4-phenyl-2H-1,2,3-triazol-2-yl)piperidin-1-yl)methanone]
[1]
  IC50: 69.7 nM
[2]
  IC50: 54 nM

## C[C@@H]1CC[C@@H](n2cc(C(C)(C)O)cn2)CN1C(=O)c1ccccc1OCC(F)F [Example 79, 2-{1-[(3R,6R)-1-{[2-(2,2-Difluoroethoxy)phenyl]carbonyl}-6-methylpiperidin-3-yl]-1H-pyrazol-4-yl}propan-2-ol]
[1]
  IC50: 127 nM
[2]
  IC50: > 10000 nM

## Cc1ccc(-n2nccn2)c(C(=O)N2C[C@H](n3ncc(C(C)(C)O)n3)CC[C@H]2C)c1 [Example 52, 2-{2-[(3R,6R)-6-methyl-1-{[5-methyl-2-(2H-1,2,3-triazol-2-yl)phenyl]carbonyl}piperidin-3-yl]-2H-1,2,3-triazol-4-yl}propan-2-ol]
[1]
  IC50: 59.8 nM
[2]
  IC50: 3090 nM

## C[C@@H]1CC[C@@H](n2ncc(C(C)(C)O)n2)CN1C(=O)c1cccc(Oc2ccccc2)c1 [Example 50, 2-(2-{(3R,6R)-6-methyl-1-[(3-phenoxyphenyl)carbonyl]piperidin-3-yl}-2H-1,2,3-triazol-4-yl)propan-2-ol]
[1]
  IC50: 126 nM
[2]
  IC50: > 10000 nM

## COc1cccc(-n2nccn2)c1C(=O)N1C[C@H](n2ncc(C(C)(C)O)n2)CC[C@H]1C [Example 51, 2-{2-[(3R,6R)-1-{[2-methoxy-6-(2H-1,2,3-triazol-2-yl)phenyl]carbonyl}-6-methylpiperidin-3-yl]-2H-1,2,3-triazol-4-yl}propan-2-ol]
[1]
  IC50: 67.4 nM
[2]
  IC50: > 10000 nM

## C[C@@H]1CC[C@@H](n2ncc(C(C)(C)O)n2)CN1C(=O)c1ccsc1-n1nccn1 [Example 33, 2-{2-[(3R,6R)-6-methyl-1-{[2-(2H-1,2,3-triazol-2-yl)thiophen-3-yl]carbonyl}piperidin-3-yl]-2H-1,2,3-triazol-4-yl}propan-2-ol]
[1]
  IC50: 18.4 nM
[2]
  IC50: 2560 nM

## Cc1nn([C@@H]2CC[C@@H](C)N(C(=O)c3ccccc3OC(F)F)C2)nc1C(C)(C)O [Example 66, 2-{2-[(3R,6R)-1-{[2-(Difluoromethoxy)phenyl]carbonyl}-6-methylpiperidin-3-yl]-5-methyl-2H-1,2,3-triazol-4-yl}propan-2-ol]
[1]
  IC50: 9.6 nM
[2]
  IC50: 3060 nM

## C[C@@H]1CC[C@@H](n2ncc(C(C)(C)O)n2)CN1C(=O)c1ccccc1-n1nccn1 [Example 25, (2-(2H-1,2,3-triazol-2-yl)phenyl)((2R,5R)-5-(4-(2-hydroxypropan-2-yl)-2H-1,2,3-triazol-2-yl)-2-methylpiperidin-1-yl)methanone]
[1]
  IC50: 7.5 nM
[2]
  IC50: 594 nM

## C[C@@H]1CC[C@@H](n2ncc(C(C)(C)O)n2)CN1C(=O)c1ccccc1OC(F)F [Example 21, (2-(Difluoromethoxy)phenyl)((2R,5R)-5-(4-(2-hydroxypropan-2-yl)-2H-1,2,3-triazol-2-yl)-2-methylpiperidin-1-yl)methanone]
[1]
  IC50: 18 nM
[2]
  IC50: > 10000 nM

## C[C@@H]1CC[C@@H](n2cc([C@@](C)(O)C(F)(F)F)cn2)CN1C(=O)c1ccccc1-n1nccn1 [Example 105, (2R)-1,1,1-Trifluoro-2-{1-[(3R,6R)-6-methyl-1-{[2-(2H-1,2,3-triazol-2-yl)phenyl]carbonyl}piperidin-3-yl]-1H-pyrazol-4-yl}propan-2-ol]
[1]
  IC50: 9.4 nM
[2]
  IC50: 2730 nM
